# Measured values: publication PMC8510480, “Searching Anti-Zika Virus Activity in 1H-1,2,3-Triazole Based Compounds” (Molecules, 2021)
# Where two headings read alike, the source gives them in different places.
# Columns and labels:
# ZIKV [1] = assay: Screening test for anti-ZIKV activity (post-infection, compounds at CC20, TCID50 titration); format: cell-based, Zika virus; conditions: ZIKV MOI 0.1, compound at CC20, 5 days, TCID50, Vero cells
# Procedure: The antiviral activities of the compounds were evaluated by infecting Vero cells with ZIKV and then treating them with the testing molecules. Virus titer in the supernatants of treated wells and its comparison with the negative (cell + virus) and the positive 6-methylmercaptopurine riboside (6MMPr) controls allowed for the determination of the antiviral effect.
# Figure 4 Graphic result of all triazole derivates in the screening test for anti-ZIKV activity. The screening test was made for post-infection with ZIKV MOI 0.1 and treated with CC20 values from heterocyclic compounds discovered in the cytotoxicity test. After five days, the supernatant was collected and titrated by TCID50 method. The experiment was conducted in triplicates and values are the mean and the standard deviation (SD). […]
# 96-well plates with 1 × 10^4 cell/well were used in this assay and prepared 24 h previously. […] The reading was performed in an inverted optical microscope AE2000, Motic (Motic, Kowloon Bay, Hong Kong) counting positives wells by the presence of cytopathic effect and the determination of the sample title was performed with the aid of the Microsoft Office Excel program (Microsoft® Office, Redmond, WA, USA).
# The screening of the compounds was carried out with the CC20 value (µM) to determine the most viable compounds for more detailed antiviral tests. […] The samples were then titrated and analysed statistically.
# ZIKV [2] = assay: Post-infection test with ZIKV in Vero cells; format: cell-based, Zika virus; conditions: for inhibition at 136.9 µM: CC20 (4b 136.90 µM; 6MMPr 60.50 µM); for inhibition at 136.9 µM / inhibition at 68.45 µM / inhibition at 34.23 µM / inhibition at 17.11 µM: read-out: % Viral Inhibition; for inhibition at 68.45 µM: CC20/2 (4b 68.45 µM; 6MMPr 30.25 µM); for inhibition at 34.23 µM: CC20/4 (4b 34.23 µM; 6MMPr 15.13 µM); for inhibition at 17.11 µM: CC20/8 (4b 17.11 µM; 6MMPr 7.6 µM)
# Procedure: We then investigated the activity of compound 4b after ZIKV infection in cells. As already noted in the screening test, 4b reduced ZIKV growth to levels similar to 6MMPr, a positive control previously described by our group. As in the pre-treatment test, four different concentrations were used, with the maximum being CC20 (136.90, 68.45, 34.22 and 17.11 µM). […] It is worth highlighting the constant decrease in the viral titer, even in lower concentrations, while the positive control 6MMPr reduces it only in the highest concentrations.
# Statistical analysis compared the concentrations of each compound at each collection time (3 d.p.i. and 5 d.p.i.) with a t-test.
# Figure 6 Comparison of anti-ZIKV activity between 6MMPr and 4b after three- and five-days post-infection (d.p.i.). 6MMPr and compound 4b were submitted to a post-infection test when Vero cells was infected with ZIKV at MOI 0.1 for 2 h then treated with compounds. Concentrations used in the test corresponded to CC20 (4b = 136.90 µM; 6MMPr = 60.50 µM), CC20/2 (4b = 68.45 µM; 6MMPr = 30.25 µM), CC20/4 (4b = 34.22 µM; 6MMPr = 15.13 µM) and CC20/8 (4b = 17.11 µM; 6MMPr = 7.56 µM). The experiment was done in triplicates and values are the mean and the SD. Statistical analysis was made between compounds using t-test on GraphPad Prism program. * = significative; ns = not statistically significant for p < 0.05. (a) 3 d.p.i. from both compounds. (b) 5 d.p.i. from both compounds.
# 96-well plates with 1 × 10^4 cell/well were used in this assay and prepared 24 h previously. Seven serial dilutions of the virus were prepared in DMEM + 2% FBS culture medium. After removing the culture medium from the plate, 50 µL of each dilution was added to the wells in several repetitions. The plate was incubated at 37 °C and 5% atm CO2 for 1 h. After this interval, each well of the plate received an additional 100 µL of DMEM + 2% FBS culture medium. The plate was incubated again, in the same parameters, for 5 days. Some columns of the plate were selected for use as a cell control (culture medium only, no virus). The reading was performed in an inverted optical microscope AE2000, Motic (Motic, Kowloon Bay, Hong Kong) counting positives wells by the presence of cytopathic effect and the determination of the sample title was performed with the aid of the Microsoft Office Excel program (Microsoft® Office, Redmond, WA, USA).
# 48-well plates with 2.5 × 10^4 cells/well were prepared 24 h previously. A ZIKV solution at MOI 0.1 was inoculated into the wells and the cells incubated at 37 °C and 5% CO2 atmosphere. After 2 h, the culture medium was removed, and the wells were washed with 1X PBS. 2:1 dilution of 4b (136.90 µM, 68.45 µM, 34.22 µM and 17.11 µM) and 6MMPr (60.50 µM, 30.25 µM, 15.13 µM and 7.56 µM) were added in triplicate. The cells were again incubated for 72 h and 120 h. The supernatants from the wells were collected and titrated.
compound,measurement,setting,value
O=C1C(Br)=C(NCc2cn(CN3C(=O)c4ccccc4C3=O)nn2)C(=O)c2ccccc21 [Compound 4b],reduction in viral titer vs non-treated control,ZIKV [1],statistically significant reduction in viral titer
same,inhibition at 136.9 µM,"ZIKV [2]; Zika virus, 72 h, 3 d.p.i.",94.9%
same,inhibition at 68.45 µM,"ZIKV [2]; Zika virus, 72 h, 3 d.p.i.",85.6%
same,inhibition at 34.23 µM,"ZIKV [2]; Zika virus, 72 h, 3 d.p.i.",85.8%
same,inhibition at 17.11 µM,"ZIKV [2]; Zika virus, 72 h, 3 d.p.i., negative = increased virus titer compared to control",88.8%
same,inhibition at 136.9 µM,"ZIKV [2]; Zika virus, 120 h, 5 d.p.i.",97.5%
same,inhibition at 68.45 µM,"ZIKV [2]; Zika virus, 120 h, 5 d.p.i.",93.7%
same,inhibition at 34.23 µM,"ZIKV [2]; Zika virus, 120 h, 5 d.p.i.",90.8%
same,inhibition at 17.11 µM,"ZIKV [2]; Zika virus, 120 h, 5 d.p.i.",96.8%
same,IC50,"ZIKV [2]; Zika virus, Vero, read-out: IC50 (50% inhibition concentration, virus replication)",146 µM
same,% Viral Inhibition,"ZIKV [2]; post-infection test, Table 4, concentration and time not stated",91.1%
same,effect on growth of the virus (viral titer),"ZIKV [2]; post-infection, four concentrations from CC20 to CC20/8, 3 and 5 d.p.i.",inhibits the growth of the virus at all concentrations used
same,SI (selectivity index),ZIKV [2]; ratio between the CC50 and IC50 values,2.3
